Experimental data taken from patent US20060089395A1, “Nf-kb activation inhibitors” (priority 2002, published 2006).

Test system: NF-κ B
Experiment: Inhibitory activity of NF-κ B activation, luciferase reporter assay in HepG2 under TNF-α stimulation
Type: cell-based, human
Conditions: HepG2, TNF-α (40 ng/ml), 4 hours; for inhibition at 1 µg/mL / inhibition at 10 µg/mL: Homo sapiens; for Inhibitory Ratio of NF-κ B Activation(%) Drug Concentration 1 μg/mL / inhibition at 1 µg/mL: 1 μg/mL; for inhibition at 1 µg/mL: read-out: Inhibitory Ratio of NF-κ B Activation(%) Drug Concentration 1 μg/mL; for Inhibitory Ratio of NF-κ B Activation(%) Drug Concentration 10 μg/mL / inhibition at 10 µg/mL: 10 μg/mL; for inhibition at 10 µg/mL: read-out: Inhibitory Ratio of NF-κ B Activation(%) Drug Concentration 10 μg/mL
In short: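 HepG2 cells transiently transfected with a luciferase reporter driven by five tandem NF-κB binding sites, then incubated 6–24 h. Stimulated with TNF-α (40 ng/ml) with or without test compound for 4 h. Intracellular luciferase read by chemiluminescence; inhibition expressed relative to activity without compound.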

SMILES | Inhibitory Ratio of NF-κ B Activation(%) Drug Concentration 1 μg/mL [%] | Inhibitory Ratio of NF-κ B Activation(%) Drug Concentration 10 μg/mL [%] | inhibition at 1 µg/mL [%] | inhibition at 10 µg/mL [%]
COc1ccc(C(N)=O)cc1NC(=O)c1cc(Cl)ccc1O [Compound No. 163] | 92.1 | 97.4 |  | 
CCC(C)(C)c1ccc(Oc2ccccc2)c(NC(=O)c2cc(Cl)ccc2O)c1 [Compound No. 164] | 97.6 | 98.3 |  | 
CCCCCCOc1ccc(S(C)(=O)=O)cc1NC(=O)c1cc(Cl)ccc1O [Compound No. 165] | 95.9 | 99.4 |  | 
COc1ccc(-n2cccc2)c(NC(=O)c2cc(Cl)ccc2O)c1 [Compound No. 167] | 76.4 | 98.7 |  | 
Cc1ccc(S(=O)(=O)c2ccc(Cl)cc2NC(=O)c2cc(Cl)ccc2O)cc1 [Compound No. 168] | 46.7 | 97.8 |  | 
Cc1ccc(S(=O)(=O)c2ccc(Cl)c(NC(=O)c3cc(Cl)ccc3O)c2)cc1 [Compound No. 169] | 31.6 | 95.9 |  | 
COc1ccc(Oc2ccccc2)cc1NC(=O)c1cc(Cl)ccc1O [Compound No. 171] | 90.6 | 98.1 |  | 
Cc1ccc(-c2ccccc2)cc1NC(=O)c1cc(Cl)ccc1O [Compound No. 172] | 93.7 | 96.4 |  | 
COc1ccc(C(C)(C)c2ccccc2)cc1NC(=O)c1cc(Cl)ccc1O [Compound No. 173] | 86.4 | 98.3 |  | 
O=C(Nc1cc(N2CCOCC2)ccc1[N+](=O)[O-])c1cc(Cl)ccc1O [Compound No. 174] |  | 89.6 |  | 
CCCCc1ccc([N+](=O)[O-])cc1NC(=O)c1cc(Cl)ccc1O [Compound No. 176] | 96.0 | 99.5 |  | 
CCC(C)(C)c1ccc(O)c(NC(=O)c2cc(Cl)ccc2O)c1 [Compound No. 177] | 87.8 | 99.4 |  | 
COc1ccc(C)cc1NC(=O)c1cc(Cl)ccc1O [Compound No. 178] |  | 89.7 |  | 
O=C(Nc1cc(F)ccc1F)c1cc(Cl)ccc1O [Compound No. 179] | 92.5 | 93.4 |  | 
O=C(Nc1cc(F)cc(F)c1)c1cc(Cl)ccc1O [Compound No. 180] | 90.7 | 93.7 |  | 
O=C(Nc1cc(Cl)cc(Cl)c1)c1cc2ccccc2cc1O [Compound No. 181] |  | 95.1 |  | 
O=C(Nc1cc(Cl)cc(Cl)c1)c1c(O)ccc2ccccc12 [Compound No. 182] | 85.3 | 90.2 |  | 
COc1ccc(OC)c(NC(=O)c2cc3ccccc3cc2O)c1 [Compound No. 183] |  | 86.8 |  | 
CC(C)(C)c1cc(NC(=O)c2cc(Cl)cnc2O)cc(C(C)(C)C)c1 [Compound No. 184] | 53.6 | 63.8 |  | 
CC(C)(C)c1csc(NC(=O)c2cc(Br)ccc2O)n1 [Compound No. 185, 5-Bromo-N-{4-[(1,1-dimethyl)ethyl]thiazol-2-yl}-2-hydroxybenzamide] |  |  | 88.4 | 95.2
CC(C)(C)c1nc(NC(=O)c2cc(Br)ccc2O)sc1Br [Compound No. 186, 5-Bromo-N-{5-bromo-4-[(1,1-dimethyl)ethyl]thiazol-2-yl}-2-hydroxybenzamide] |  |  | 96.5 | 98.7

SMILES | Inhibitory Ratio of NF-κ B Activation(%) Drug Concentration 1 μg/mL [%] | Inhibitory Ratio of NF-κ B Activation(%) Drug Concentration 10 μg/mL [%] | inhibition at 1 µg/mL [%] | inhibition at 10 µg/mL [%]
CC(C)(C)c1nc(NC(=O)c2cc(Cl)ccc2O)sc1C#N [Compound No. 188, 5-Chloro-N-{5-cyano-4-[(1,1-dimethyl)ethyl]thiazol-2-yl)-2-hydroxybenzamide] |  |  | 92.6 | 92.4
CC(C)(C)c1nc(NC(=O)c2cc(Br)ccc2O)sc1C#N [Compound No. 189] | 20.0 | 93.8 |  | 
Cc1cnc(NC(=O)c2cc(Br)ccc2O)s1 [Compound No. 190] |  | 69.7 |  | 
Cc1nc(NC(=O)c2cc(Br)ccc2O)sc1C [Compound No. 191] |  | 67.2 |  | 
Cc1sc(NC(=O)c2cc(Br)ccc2O)nc1-c1ccccc1 [Compound No. 192] | 83.6 | 94.4 |  | 
Cc1nc(NC(=O)c2cc(Br)ccc2O)sc1-c1ccc(F)cc1 [Compound No. 193, 5-Bromo-N-[4-methyl-5-(4-fluorophenyl)thiazol-2-yl]-2-hydroxybenzamide] |  |  |  | 82
Cc1nc(NC(=O)c2cc(Br)ccc2O)sc1-c1cccc(C(F)(F)F)c1 [Compound No. 194, 5-Bromo-N-{4-methyl-5-[3-(trifluoromethyl)phenyl]thiazol-2-yl}-2-hydroxybenzamide] |  |  |  | 71.7
CCc1sc(NC(=O)c2cc(Br)ccc2O)nc1C(C)(C)C [Compound No. 195, 5-Bromo-N-{4-[(1,1-dimethyl)ethyl]-5-ethylthiazol-2-yl}-2-hydroxybenzamide] |  |  | 90.5 | 98.1
CCc1nc(NC(=O)c2cc(Br)ccc2O)sc1-c1ccccc1 [Compound No. 196] | 28.8 | 87.6 |  | 
CC(C)c1nc(NC(=O)c2cc(Br)ccc2O)sc1-c1ccccc1 [Compound No. 197, 5-Bromo-N-(4-isopropyl-5-phenylthiazol-2-yl)-2-hydroxybenzamide] |  |  | 70.1 | 96.1
CCCCc1nc(NC(=O)c2cc(Br)ccc2O)sc1-c1ccccc1 [Compound No. 198, 5-Bromo-N-(4-butyl-5-phenylthiazol-2-yl)-2-hydroxybenzamide] |  |  | 46.1 | 88.7
CC(=O)Oc1ccc(Cl)cc1C(=O)Nc1nc(C(C)(C)C)c(C(=O)C(C)(C)C)s1 [Compound No. 200] | 95.0 | 97.7 |  | 
CCOC(=O)c1sc(NC(=O)c2cc(Br)ccc2O)nc1C(C)(C)C [Compound No. 202, 2-(5-Bromo-2-hydroxybenzoyl)amino-4-[(1,1-dimethyl)ethyl]thiazole-5-carboxylic acid ethyl ester] |  |  | 84.5 | 92.4
CC(C)(C)c1nc(NC(=O)c2cc(Br)ccc2O)sc1N1CCCCC1 [Compound No. 204, 5-Bromo-N-{4-[(1,1-dimethyl)ethyl]-5-piperidinothiazol-2-yl)-2-hydroxybenzamide] |  |  | 93.6 | 97.8
CC(C)(C)c1nc(NC(=O)c2cc(Br)ccc2O)sc1N1CCOCC1 [Compound No. 205, 5-Bromo-N-{4-[(1,1-dimethyl)ethyl]-5-morpholinothiazol-2-yl}-2-hydroxybenzamide] |  |  | 87.8 | 96.8
CN1CCN(c2sc(NC(=O)c3cc(Br)ccc3O)nc2C(C)(C)C)CC1 [Compound No. 206, 5-Bromo-N-{4-[(1,1-dimethyl)ethyl]-5-(4-methylpiperazin-1-yl)thiazol-2-yl)-2-hydroxybenzamide] |  |  | 36.3 | 89.6
O=C(Nc1nc(-c2ccccc2)cs1)c1cc(Br)ccc1O [Compound No. 208] |  | 78.8 |  | 
O=C(O)Cc1sc(NC(=O)c2cc(Br)ccc2O)nc1-c1ccccc1 [Compound No. 210] |  | 72.1 |  | 
O=C(Nc1nc(-c2ccccc2)c(-c2ccccc2)s1)c1cc(Br)ccc1O [Compound No. 211] |  | 67.0 |  | 
O=C(Nc1nc(Cc2ccccc2)c(-c2ccccc2)s1)c1cc(Br)ccc1O [Compound No. 212] | 79.7 | 95.0 |  | 
O=C(Nc1nc(C(F)(F)F)c(-c2ccccc2)s1)c1cc(Br)ccc1O [Compound No. 213] | 85.1 | 89.4 |  | 
